{
  "source": "ChEMBL document CHEMBL4715844",
  "about": "“Structure-based virtual screening and biological evaluation of novel non-bisphosphonate farnesyl pyrophosphate synthase inhibitors” (Eur J Med Chem, 2020)",
  "key": {"[1]": {"system": "MDA-MB-231", "test": "Cytotoxicity against FPPS-negative human MDA-MB-231 cells assessed as reduction in cell viability measured after 48 hrs by MTT assay", "format": "functional, cell-based", "conditions": "MDA-MB-231, 48 h"}, "[2]": {"system": "LoVo", "test": "Cytotoxicity against FPPS-positive human Lovo cells assessed as reduction in cell viability measured after 48 hrs by MTT assay"}, "[3]": {"system": "HCT-116", "test": "Cytotoxicity against FPPS-positive human HCT116 cells assessed as reduction in cell viability measured after 48 hrs by MTT assay", "conditions": "HCT-116, 48 h"}},
  "data": [
    {"smiles": "O=P(O)(O)C(O)(Cn1ccnc1)P(=O)(O)O", "note": "[ZOLEDRONIC ACID]", "values": [
      {"measurement": "IC50", "setting": "[1]", "value": "> 100", "unit": "µM"},
      {"measurement": "IC50", "setting": "[2]", "value": 34.9, "unit": "µM"},
      {"measurement": "IC50", "setting": "[3]", "value": 61.6, "unit": "µM"}
    ]}
  ]
}
